{"source": "paper PMC10144058", "about": "“New Hybrid Scaffolds Based on 5-FU/Curcumin: Synthesis, Cytotoxic, Antiproliferative and Pro-Apoptotic Effect” (Pharmaceutics, 2023)", "key": {"SW620 cells [1]": {"test_system": "SW620 cells", "assay": "Cell viability, sulforhodamine B (SRB) assay", "format": "cell-based, human", "settings": "Homo sapiens", "description": "(§1) SW480 (colon adenocarcinoma) and SW620 (derived metastatic) malignant cell lines, and the non-malignant lines HaCaT (human keratinocytes) and CHO-K1 (Chinese Hamster Ovary), were obtained from the European Collection of Authenticated Cell Cultures (ECACC, Porton Down, Salisbury, UK). The cells were maintained in Dulbecco’s Modified Eagle’s Medium (DMEM), supplemented with 10% equine serum previously inactivated at 56 °C, 1% penicillin/streptomycin, and 1% non-essential amino acids, and incubated at 37 °C in an atmosphere with 5% CO2. To carry out the experiments, the serum was diluted to 3% and additionally supplemented with […] insulin, […] transferrin, and 5 ng/mL selenium. Cells were used for experimentation when they reached 80–90% confluence, using a 1X trypsin enzymatic disintegration method. To avoid contamination by Mycoplasma spp., cell cultures were periodically analyzed by polymerase chain reaction (PCR).\n(§2) Cell viability was evaluated with a sulforhodamine B (SRB) assay. This technique provides an index of protein contents in living and adherent cells, whose optical density can be related to cell concentration. Initially, 20,000 cells were seeded per well in 96-well culture plates. An initial adherence period of 24 h was performed at 37 °C, 5% CO2, and after this, the medium was replaced by another that contained the hybrid compounds in different concentrations. Then, the cells were left incubating for 24 and 48 h under the same conditions previously described. After the respective incubation times, the cells were fixed with trichloroacetic acid (50% v/v) for 1 h at 4 °C and stained with 0.4% (p/v) of SRB. Subsequently, washings with 1% acetic acid were carried out to eliminate possible nonspecific bindings, and after solubilization with 10 mM Tris-base, the absorbance was read at 492 nm in a microplate reader (Mindray MR-96A). All the experiments were carried out in triplicate."}, "CHO-K1 cells": {"test_system": "CHO-K1 cells", "assay": "Cell viability, sulforhodamine B (SRB) assay, non-malignant cells", "format": "cell-based, Chinese Hamster", "settings": "Cricetulus griseus", "description": "as §1, §2"}, "SW620 cells [2]": {"test_system": "SW620 cells", "assay": "Antiproliferative activity (SRB, 0-8 days)", "format": "cell-based, human", "settings": "for viability at 1.25 µM / viability at 20 µM: Homo sapiens, read-out: Cell Viability (%) ± SE; for viability at 1.25 µM: SW620, 1.25 µM; for viability at 20 µM: SW620, 20 µM", "description": "For this experiment, the same colorimetric method (SRB) from the evaluation of cell viability was used, although with some modifications. Initially, 2500 cells per well were seeded in 96-well culture plates, and a 24 h adherence period was performed at 37 °C in a 5% CO2 atmosphere. […] For this assay, incubation periods of 0, 2, 4, 6, and 8 days were used, and the fixation, staining, and reading conditions were the same as those previously described for the cytotoxicity assay."}, "[3]": {"settings": "SW-620, 48 h, 2 days after plating"}, "[4]": {"settings": "SW-620, 96 h, 4 days after plating"}, "[5]": {"settings": "SW-620, 144 h, 6 days after plating"}, "[6]": {"settings": "SW-620, 192 h, 8 days after plating"}}, "note": "Read-outs that look alike come from different tables or passages of the source."}
{"compound": "COc1cc(/C=C/C(=O)c2ccc(OCCCCCn3cc(Cn4cc(F)c(=O)[nH]c4=O)nn3)cc2)ccc1O", "note": "[Compound 6d, (E)-5-fluoro-1-((1-(5-(4-(3-(4-hydroxy-3-methoxyphenyl)acryloyl)phenoxy)pentyl)-1H-1,2,3-triazol-4-yl)methyl)pyrimidine-2,4(1H,3H)-dione]", "values": [{"measurement": "IC50", "setting": "SW620 cells [1]; SW-620, 24 h, 24 h", "value": "37.1 ± 3.05", "unit": "µM"}, {"measurement": "IC50", "setting": "SW620 cells [1]; SW-620, 48 h, 48 h", "value": "7.51 ± 1.47", "unit": "µM"}, {"measurement": "IC50", "setting": "CHO-K1 cells; CHO-K1, 24 h", "value": "12.4 ± 1.34", "unit": "µM"}, {"measurement": "IC50", "setting": "CHO-K1 cells; CHO-K1, 48 h", "value": "28.1 ± 1.95", "unit": "µM"}, {"measurement": "viability at 1.25 µM", "setting": "SW620 cells [2]; [3]", "value": "91 ± 2.85", "unit": "%"}, {"measurement": "viability at 20 µM", "setting": "SW620 cells [2]; [3]", "value": "42.5 ± 4.57", "unit": "%"}, {"measurement": "viability at 1.25 µM", "setting": "SW620 cells [2]; [4]", "value": "85.2 ± 3.23", "unit": "%"}, {"measurement": "viability at 20 µM", "setting": "SW620 cells [2]; [4]", "value": "7.1 ± 0.95", "unit": "%"}, {"measurement": "viability at 1.25 µM", "setting": "SW620 cells [2]; [5]", "value": "67.3 ± 2.32", "unit": "%"}, {"measurement": "viability at 20 µM", "setting": "SW620 cells [2]; [5]", "value": 0, "unit": "%"}, {"measurement": "viability at 1.25 µM", "setting": "SW620 cells [2]; [6]", "value": "54.4 ± 2.76", "unit": "%"}, {"measurement": "viability at 20 µM", "setting": "SW620 cells [2]; [6]", "value": 0, "unit": "%"}, {"measurement": "inhibition percentages (decrease in cell viability)", "setting": "SW620 cells [2]; SW620, from 5 µM, day 2", "value": "higher than 30%"}]}
